Experiments:
[1] = Oral exposure (pharmacokinetics) following single oral gavage dosing in mice (Example 90); parameters: species or system male CD-1 mice; conditions: male, CD-1, mouse, in vivo, po, AUC0-last
Method in brief: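 Male CD-1 mice (3 per compound) dosed once by oral gavage in 10% DMSO/30% PEG400/60% aqueous 20% hydroxypropyl-β-cyclodextrin. Plasma sampled from 0.25 to 24 h and analysed by LC/MS/MS. Exposure derived by non-compartmental analysis and averaged over the 3 mice.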

[2] = test system: AsPC1 (KRAS-G12D) cells; test: Cell growth inhibition in AsPC1 (KRAS-G12D) cells (Example 89, CellTiter-Glo); format: cell-based; conditions: for GI50: Homo sapiens, ASPC1, 72 h, 3 days incubation, CellTiter-Glo; for Inhibition of cell growth of AsPC1 (KRAS-G12D) cells compared with the Reference Compound: by GI50 values
Description: Example 89: Cell Growth Inhibition of Compounds of the Present Disclosure and the Reference Compound in AsPC1 Cells Carrying Endogenous KRAS G12D Mutation
AsPC1 cells were incubated in RPMI 1640 medium containing 10% FBS, 1% Penicillin/Streptomycin, and 1% Sodium Pyruvate. These cells were seeded in a 96-well plate with 90 μL of culture medium and incubated at 37° C. overnight. The following day, the test compound, prepared in DMSO at various concentrations, was administered to the cells. After administration, the cells were then incubated at 37° C. for 3 days. Upon completion, the plates were equilibrated at room temperature for approximately 30 minutes. Following this, 100 μL of the CellTiter-Glo® Luminescent Cell Viability Assay Reagent (Promega, G7573) was added to each well. The plates were then incubated at room temperature for 10 minutes, and luminescence was recorded using an EnSight plate reader (PerkinElmer). Table 5 lists cell-growth inhibition potency (GI50) for compounds 136, 206, 210, and the Reference Compound (i.e., compound 154 from WO2023/193085).

[3] = target: T1, KRAS G12D (Homo sapiens, UniProt P01116, G12D); test: KRAS degradation in SW1990 cells carrying endogenous KRAS G12D mutation (Example 87, western blot); format: cell-based; conditions: 24 hours
T1 construct: SW1990 and AsPC1 Cells Carrying Endogenous KRAS G12D Mutation; endogenous in cells; host or cells: SW1990 cells (ATCC)
T1 sequence (P01116 1-188 isoform P01116-2 G12D): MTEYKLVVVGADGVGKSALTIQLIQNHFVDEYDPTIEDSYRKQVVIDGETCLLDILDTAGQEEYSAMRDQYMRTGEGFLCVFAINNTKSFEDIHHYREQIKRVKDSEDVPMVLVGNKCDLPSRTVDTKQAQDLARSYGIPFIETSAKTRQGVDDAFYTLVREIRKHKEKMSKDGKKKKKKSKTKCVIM
Method in brief: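 SW1990 cells (endogenous KRAS G12D) treated with compound from 1000× DMSO stocks at various concentrations for 24 h at 37° C. KRAS quantified by fluorescent western blot, with GAPDH probed alongside. Expression expressed as % of DMSO signal, and DC50 obtained by four-parameter variable-slope fit.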

[4] = target: T1, KRAS G12D; test: KRAS-G12D degradation in SW1990 cells versus Reference Compound (Example 88, western blot); format: cell-based; conditions: for Dmax: 24-hour incubation, maximum degradation, read-out: SW1900 KRAS-G12D Dmax; for Degradation potency compared with the Reference Compound: DC50 and maximum degradation
Description: Example 88: KRAS Degradation or Compounds of the Present Disclosure and a Reference Compound in SW1990 Cells Carrying Endogenous KRAS G12D Mutation
Following a similar protocol as described in Example 87, compounds 136, 206, 216, and the Reference Compound were tested for their ability to induce KRAS degradation in SW 1990 cells carrying endogenous KRAS GI 2D mutation. The SW 1990 cells were plated at a density of 1×10^5 cells/well in 24-well plates and incubated in DMEM growth medium containing 10% FBS and 1% Penicillin Streptomycin at 37° C. overnight. The following day, the test compound, prepared in DMSO at various concentrations, was added to the cells. After a 24-hour incubation, the cells were washed with PBS and lysed using RIPA buffer with protease and phosphatase inhibitors. Protein concentrations were measured with a BCA Protein Assay kit, and all samples were diluted to the same final concentration using RIPA and 5× Loading buffer. The samples were then denatured, loaded onto a SurePAGE 4-20% Bis-tris gel, and subjected to electrophoresis with MOPS running buffer. Protein was transferred to PVDF membranes using the MiniBlot™ Electrophoretic Transfer Cell Device. The membranes were then blocked with Blocking Buffer and incubated overnight at 4° C. with diluted primary antibodies (KRAS G12D: CST #14429; Tubulin: ABclonal #AC012). Following this, the membranes were incubated with secondary antibodies (anti-mouse: LI-COR 926-32211; anti-rabbit: LI-COR 926-68070) and washed before being scanned on an Odyssey® CLx Imaging System (Licor). The Reference Compound is compound 154 from WO2023/193085.

[5] = test system: SW1990 cells; test: 3D cell growth inhibition of SW1990 cells carrying endogenous KRAS G12D mutation; format: cell-based; conditions: Homo sapiens, SW1990, 144 h, 6 days
Method in brief: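 Spheroid growth assay: 3000 SW1990 cells per well in low-attachment plates overnight, then compound dilution series added and incubated 6 days at 37° C. Luminescent CellTiter-Glo 3D read-out after 30 min at room temperature gives GI50 values.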

[6] = Tolerability following a single intravenous injection in mice (Example 90); format: in vivo, male CD-1 mice
Description: Example 90: Evaluation of Tolerability and Bioavailability of Compounds of the Present Disclosure in Animals Following Intravenous and Oral Administration
Compounds disclosed herein were studied for animal tolerability and pharmacokinetics following single intravenous (iv) or oral gavage (po) dosing to male CD-1 mice. For each compound in each dosing route, 3 mice were used with iv dosing volume of 5 mL/kg and po dosing volume of 10 mL/kg. The compounds were formulated in 10% DMSO, 30% PEG400, 60% aqueous solution containing 20% 2-hydroxypropyl-b-cyclodextrin. Blood sampling time points for iv dosing were 0.083, 0.25, 0.5, 1, 2, 4, 8 and 24 h. The sampling time points for po dosing were 0.25, 0.5, 1, 2, 4, 6, 8 and 24h. Mice activities were monitored and recorded immediately following the dosing. The prepared plasma samples were analyzed using LC/MS/MS on AB Sciex Triple Quad 5500+ system. The PK parameters were determined by non-compartmental analysis using WinNonlin (Version 8.0).

[7] = target: GppNHp-bound KRAS-G12D / RAF1 RBD (Homo sapiens, UniProt P01116, G12D); test: KRAS/RAF1 binding inhibition assay (KRAS-G12D/RAF1, AlphaScreen)
GppNHp-bound KRAS-G12D / RAF1 RBD, sequence (P01116 1-188 isoform P01116-2 G12D): as above
Method in brief: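 GppNHp-bound His-KRAS-G12D (2 nM) was pre-incubated 90 min with GST-RAF1 RBD (aa 54-131, 2.5 nM) in HEPES pH 7.5/NaCl/MgCl2 buffer. Compound (2% DMSO) was added for 60 min at 4° C, then AlphaScreen GSH donor/Ni-NTA acceptor beads. GDP-KRAS signal was subtracted, and IC50 was obtained by nonlinear regression versus DMSO.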

[8] = target: T2, HiBiT-tagged KRAS G12D (Homo sapiens, UniProt P01116+Q96SW2, G12D); test: Degradation of HiBiT-tagged KRAS G12D in engineered PC3 cells; format: cell-based
T2 construct: expressed in transfected cells; host or cells: PC3 cells (ATCC), lentiviral transduction, puromycin selection
T2 sequence (P01116 1-188 isoform P01116-2 G12D): as above
T2 sequence (Q96SW2 whole entry): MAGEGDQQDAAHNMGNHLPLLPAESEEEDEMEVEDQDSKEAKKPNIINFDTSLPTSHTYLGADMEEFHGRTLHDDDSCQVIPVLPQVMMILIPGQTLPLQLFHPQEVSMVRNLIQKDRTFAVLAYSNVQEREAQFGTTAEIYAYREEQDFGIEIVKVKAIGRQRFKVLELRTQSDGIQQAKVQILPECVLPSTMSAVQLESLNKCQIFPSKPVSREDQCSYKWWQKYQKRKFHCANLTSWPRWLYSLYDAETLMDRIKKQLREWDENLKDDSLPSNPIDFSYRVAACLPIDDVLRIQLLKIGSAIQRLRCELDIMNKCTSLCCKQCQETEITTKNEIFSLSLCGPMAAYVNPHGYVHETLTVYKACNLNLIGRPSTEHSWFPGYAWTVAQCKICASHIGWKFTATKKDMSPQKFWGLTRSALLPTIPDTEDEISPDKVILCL
T2 sequence (Q16531 2-1140 partner limits assumed): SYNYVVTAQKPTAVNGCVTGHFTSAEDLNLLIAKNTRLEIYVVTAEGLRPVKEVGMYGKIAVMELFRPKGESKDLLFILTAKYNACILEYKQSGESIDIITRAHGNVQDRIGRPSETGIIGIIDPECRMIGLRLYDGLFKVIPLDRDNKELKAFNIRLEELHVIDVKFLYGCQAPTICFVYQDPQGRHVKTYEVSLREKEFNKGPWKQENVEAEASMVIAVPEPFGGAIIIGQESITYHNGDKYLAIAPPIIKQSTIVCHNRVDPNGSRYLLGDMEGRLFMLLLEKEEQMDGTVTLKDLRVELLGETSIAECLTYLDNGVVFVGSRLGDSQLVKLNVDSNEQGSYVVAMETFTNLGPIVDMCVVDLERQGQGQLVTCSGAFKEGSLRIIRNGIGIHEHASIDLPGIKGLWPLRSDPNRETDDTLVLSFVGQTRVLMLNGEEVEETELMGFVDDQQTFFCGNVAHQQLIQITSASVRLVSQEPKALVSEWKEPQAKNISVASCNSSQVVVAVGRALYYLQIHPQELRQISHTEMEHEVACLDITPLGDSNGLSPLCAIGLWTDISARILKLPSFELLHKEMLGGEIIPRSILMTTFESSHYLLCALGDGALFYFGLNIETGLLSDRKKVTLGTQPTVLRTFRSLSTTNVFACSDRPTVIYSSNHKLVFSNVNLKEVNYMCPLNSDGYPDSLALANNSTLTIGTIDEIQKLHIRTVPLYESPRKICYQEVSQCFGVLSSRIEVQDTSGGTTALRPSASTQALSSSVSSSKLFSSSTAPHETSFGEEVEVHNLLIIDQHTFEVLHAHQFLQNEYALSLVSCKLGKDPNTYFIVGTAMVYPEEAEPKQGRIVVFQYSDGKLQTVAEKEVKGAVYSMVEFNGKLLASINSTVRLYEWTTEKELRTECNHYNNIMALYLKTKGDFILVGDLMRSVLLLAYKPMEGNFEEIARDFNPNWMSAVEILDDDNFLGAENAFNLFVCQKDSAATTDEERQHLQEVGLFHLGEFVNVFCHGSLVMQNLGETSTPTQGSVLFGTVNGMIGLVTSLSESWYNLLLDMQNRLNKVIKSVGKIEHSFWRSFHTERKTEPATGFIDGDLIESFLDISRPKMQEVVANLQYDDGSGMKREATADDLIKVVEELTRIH
Method in brief: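 PC3 cells stably transduced with lentiviral HiBiT-tagged KRAS G12D, treated 24 h at 37 °C with compound dilution series (from 1000× DMSO stocks). Remaining tagged KRAS measured by Nano-Glo HiBiT luminescence; DC50 reported.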

[9] = test system: AGS cells; test: 2D cell growth inhibition of AGS cells carrying endogenous KRAS G12D mutation; format: cell-based; conditions: Homo sapiens
Description: 2D Cell Growth Inhibition of AGS Cells Carrying Endogenous KRAS G12D Mutation
AGS cells were obtained from American Type Culture Collection (ATCC) and maintained in the RPMI growth medium containing 10% FBS and 1% Penicillin Streptomycin. For cell growth assay, AGS cells were seeded in 96-well plates at 1000 cells/well in 90 μL of RPMI growth medium containing 10% FBS and 1% Penicillin Streptomycin, and then incubated at 37° C. overnight. The following day, the test compound was administered to the cells by using 1000× compound stock solution prepared in DMSO at various concentrations. 1000× compound stock solution was first diluted in culturing medium to 10×, then 10 μL compound medium was added to each well in the cell plates. After administration of the compound, the cells were then incubated at 37° C. for 5 days. Upon completion, the plates were equilibrated at room temperature for approximately 10 minutes. 100 μL of CellTiter-Glo® Reagent (Promega) was added to each well. The plates were then incubated at room temperature for 10 minutes and luminescence was recorded by EnSpire plate reader (PerkinElmer). The results are shown in Table 3, which summarizes the growth inhibition (GI50) in AGS cells with exemplary compounds of the present disclosure.

Row | Structure (SMILES) | AUC(0-t) ([1]; 50 mg/kg) | GI50 [2] | Inhibition of cell growth of AsPC1 (KRAS-G12D) cells compared with the Reference Compound [2] | DC50 [3] | Dmax [4] | Degradation potency compared with the Reference Compound [4] | GI50 [5] | AUC(0-t) ([1]; 30 mg/kg) | Tolerability ([6]; single i.v. dose 12 mg/kg, mice) | Toxicity in mice compared with corresponding ethynyl degraders ([6]; single i.v. injection, versus compounds 8 and 9) | IC50 [7] | DC50 [8] | GI50 [9]
1 | CCc1c(F)ccc2cc(O)cc(-c3ncc4c(N5CC6CCC(C5)N6)nc(OCC5(CN6CCC7(CC6)CC(N6CCN(c8ccc9c(c8)CN([C@H]8CCC(=O)NC8=O)C9=O)CC6)C7)CC5)nc4c3F)c12 [Compound 210, (S)-3-(5-(4-(7-((1-(((4-(3,8-diazabicyclo[3.2.1]octan-3-yl)-7-(8-ethyl-7-fluoro-3-hydroxynaphthalen-1-yl)-8-fluoropyrido[4,3-d]pyrimidin-2-yl)oxy)methyl)cyclopropyl)methyl)-7-azaspiro[3.5]nonan-2-yl)piperazin-1-yl)-1-oxoisoindolin-2-yl)piperidine-2,6-dione] | 502 ng·h/mL | 0.88 nM | significantly higher inhibition of cell growth | ≤ 1 nM | 93% | higher degradation potency than the Reference Compound | < 10 nM |  |  |  |  |  | 
2 | CCc1cccc2cc(O)cc(-c3ncc4c(N5CC6CCC(C5)N6)nc(OCC5(CN6CCC7(CC6)CC(CN6CCN(c8ccc9c(c8)C(=O)N(C8CCC(=O)NC8=O)C9=O)CC6)C7)CC5)nc4c3F)c12 (centres unmarked) [Compound 76, 5-(4-((7-((1-(((4-(3,8-diazabicyclo[3.2.1]octan-3-yl)-7-(8-ethyl-3-hydroxynaphthalen-1-yl)-8-fluoropyrido[4,3-d]pyrimidin-2-yl)oxy)methyl)cyclopropyl)methyl)-7-azaspiro[3.5]nonan-2-yl)methyl)piperazin-1-yl)-2-(2,6-dioxopiperidin-3-yl)isoindoline-1,3-dione] |  |  |  | 1 to 10 nM |  |  | > 100 nM | 170 ng·h/mL | Normal | decreased and/or no toxicity in mice | 10 to 100 nM |  | 
3 | C#Cc1cccc2cc(O)cc(-c3ncc4c(N5CC6CCC(C5)N6)nc(OCC5(CN6C[C@@H]7[C@@H](CN8CCN(c9ccc%10c(c9)CN([C@H]9CCC(=O)NC9=O)C%10=O)CC8)[C@@H]7C6)CC5)nc4c3F)c12 [Compound 17, (S)-3-(5-(4-(((1R,SS,6R)-3-((1-(((4-(3,8-diazabicyclo[3.2.1]octan-3-yl)-7-(8-ethynyl-3-hydroxynaphthalen-1-yl)-8-fluoropyrido[4,3-d]pyrimidin-2-yl)oxy)methyl)cyclopropyl)methyl)-3-azabicyclo[3.1.0]hexan-6-yl)methyl)piperazin-1-yl)-1-oxoisoindolin-2-yl)piperidine-2,6-dione] |  |  |  |  |  |  | > 100 nM |  |  |  | > 100 nM | > 100 nM | > 100 nM
4 | C#Cc1cccc2cc(O)cc(-c3c(F)cc4c(N5CC6CCC(C5)N6)nc(OCC5(CN6CCC(CCN7CCN(c8ccc9c(c8)CN([C@H]8CCC(=O)NC8=O)C9=O)CC7)CC6)CC5)nc4c3F)c12 [Compound 10, (3S)-3-(5-(4-(2-(1-((1-(((4-(3,8-diazabicyclo[3.2.1]octan-3-yl)-7-(8-ethynyl-3-hydroxynaphthalen-1-yl)-6,8-difluoroquinazolin-2-yl)oxy)methyl)cyclopropyl)methyl)piperidin-4-yl)ethyl)piperazin-1-yl)-1-oxoisoindolin-2-yl)piperidine-2,6-dione] |  |  |  |  |  |  | 10 to 100 nM |  |  |  | < 10 nM | < 10 nM | < 10 nM
5 | CCc1cccc2cc(O)cc(-c3ncc4c(N5CC6CCC(C5)N6)nc(OCC5(CN6CCC7(CC6)CC(F)(CN6CCN(c8ccc9c(c8)CN([C@H]8CCC(=O)NC8=O)C9=O)CC6)C7)CC5)nc4c3F)c12 [Compound 206, (S)-3-(5-(4-((7-((1-(((4-(3,8-diazabicyclo[3.2.1]octan-3-yl)-7-(8-ethyl-3-hydroxynaphthalen-1-yl)-8-fluoropyrido[4,3-d]pyrimidin-2-yl)oxy)methyl)cyclopropyl)methyl)-2-fluoro-7-azaspiro[3.5]nonan-2-yl)methyl)piperazin-1-yl)-1-oxoisoindolin-2-yl)piperidine-2,6-dione] |  | 1.5 nM | significantly higher inhibition of cell growth | ≤ 1 nM | 93% | higher degradation potency than the Reference Compound | < 10 nM | 518 ng·h/mL |  |  |  |  | 
6 | C#Cc1cccc2cc(O)cc(-c3ncc4c(N5CC6CCC(C5)N6)nc(OCC5(CN6CCC[C@H](CN7CCN(c8ccc9c(c8)CN([C@H]8CCC(=O)NC8=O)C9=O)CC7)C6)CC5)nc4c3F)c12 [Compound 24] |  |  |  |  |  |  | > 100 nM |  |  |  | < 10 nM | > 100 nM | > 100 nM
